SMILES strings stand for the structures.

The nature of this data set: Human HepG2 cell viability assay in 384 well format. Format: toxicity, cell-based. Set-up: dose 125 nL, time 70.5 hour; concentration not given beside the values. The settings on record: HepG2 cells, read-out: Inhibition.
For `COc1cccc(-c2n[nH]cc2CNC2CCN(C(C)C)CC2)c1`, the cytotoxicity at 70.5 h is -0.27%.

As for `CC(=O)N1CCc2[nH]nc(C(=O)N3CCOCC3)c2C1`, the cytotoxicity at 70.5 h was -4.57%.

For `CCOc1ccc(NC(C)C(=O)NCCc2cccs2)cc1CO` (configuration not stated), the cytotoxicity at 70.5 h was -3.5%.

On to `COCc1ncn2c1CN(C(=O)Nc1cccc(OC)c1)CC2`, for which the cytotoxicity at 70.5 h is 19.8%.

As for `CC(C)OC(=O)N1CCC(c2nnc(Cn3ccnc3)n2C)CC1`, the cytotoxicity at 70.5 h is 20.7%.

For `O=C(c1cccc(NCCO)c1)N1CCOCC1`, the cytotoxicity at 70.5 h was 6.48%.

Take `CC(=O)N(C)Cc1cccc(NC(=O)N(C)Cc2nccs2)c1`: the cytotoxicity at 70.5 h was -4.8%.

For the compound `CC(C)N1CCN(C)CC(Cc2cc(N(C)C)ncn2)C1` (configuration not stated), the cytotoxicity at 70.5 h is -3.36%.

Turning to `COc1cccc(S(=O)(=O)N2C[C@H](OC)[C@]3(CCCO3)C2)c1`, the cytotoxicity at 70.5 h was -4.33%.

Consider `Cc1ccc2c(ccn2CCC(=O)O)c1`, for which the cytotoxicity at 70.5 h is -4.94%.

Turning to `Cc1nn(C)c(Cl)c1C1CCCN1CC(=O)N1CCOCC1` (configuration not stated), the cytotoxicity at 70.5 h was 1.93%.

In the case of `CC(C(=O)Nc1ccc(N2CCCC2)nc1)n1cccn1` (configuration not stated), the cytotoxicity at 70.5 h is -0.411%.

In the case of `C[C@@H]1CN2C[C@H](O)CC2CN1Cc1ccc2nccnc2c1` (some centres not stated), the cytotoxicity at 70.5 h turned out to be 35.6%.

In the case of `COc1ccc(Cl)cc1Nc1nc(N)c(C(C)=O)s1`, the cytotoxicity at 70.5 h was -19.7%.

For the compound `CC(C)c1cc(NCC2(Cn3cccn3)CC2)nc(N)n1`, the cytotoxicity at 70.5 h was -0.462%.

On to `CCN(CC)c1nc(Nc2cccc(C(=O)O)c2)nc2ccccc12`, for which the cytotoxicity at 70.5 h was -11.2%.

Consider `Cc1ccc(F)c2c1N(C(=O)Cc1c(C)nn(C)c1C)CCC2`, for which the cytotoxicity at 70.5 h was -8.9%.

In the case of `COc1cc(C)nc(N2CCN(C(=O)CN(C)C(C)C)CC2)n1`, the cytotoxicity at 70.5 h was 29%.

With `Cc1cc(C2CCCN2Cc2cccc(C(=O)Nc3nccs3)c2)no1` (configuration not stated), the cytotoxicity at 70.5 h is -14.5%.

On to `Cc1nn(C)c(C)c1CC(=O)N1CCCC(n2ccnc2)C1` (configuration not stated), for which the cytotoxicity at 70.5 h is -3.37%.

With `Cn1cc(C2CCCN2C(=O)c2cnc(-c3ccccn3)s2)cn1` (configuration not stated), the cytotoxicity at 70.5 h turned out to be 3.12%.

On to `CCS(=O)(=O)c1ccccc1N1CCC(NC2CCCC2)CC1`, for which the cytotoxicity at 70.5 h is -2.15%.

With `COc1cc(CN(C)C(=O)NCCNC(=O)C2CC2)ccc1SC`, the cytotoxicity at 70.5 h is -16%.

Take `COC(=O)c1ccc(Cn2cccc(C(F)(F)F)c2=O)s1`: the cytotoxicity at 70.5 h was -2.65%.

Regarding `Cc1cc(SC(C)(C)C)ccc1NC(C)C(=O)NC(N)=O` (configuration not stated), the cytotoxicity at 70.5 h is 9.69%.

For the compound `COCCN1CCC2(CC1)CC(NC(=O)CC1CC1)c1ccccc1O2` (configuration not stated), the cytotoxicity at 70.5 h was -6.99%.

On to `CSc1ccc(-c2nc(CN3CCCC(CNC(C)=O)C3)c(C)o2)cc1` (configuration not stated), for which the cytotoxicity at 70.5 h is -3.75%.

Turning to `Cn1cc(Br)cc(NC(=O)CC(C)(C)C)c1=O`, the cytotoxicity at 70.5 h is -13.2%.

For the compound `COc1c(CNC2CCN(c3ncccn3)CC2)c(C)nn1C`, the cytotoxicity at 70.5 h is -8.59%.

With `CN(C)C(=O)CN1C(=O)CCC12CCN(Cc1cccn1C)CC2`, the cytotoxicity at 70.5 h was 0.746%.

For `Cn1ncc2c1NC(=O)CC2c1cccs1` (configuration not stated), the cytotoxicity at 70.5 h is -4.29%.

As for `COc1cccc(S(=O)(=O)NC(=O)CCC2CCCC2)c1`, the cytotoxicity at 70.5 h was -8.64%.

Take `CC(C)C(=O)N1CCC(c2c(C(N)=O)sc3ccccc23)C1` (configuration not stated): the cytotoxicity at 70.5 h worked out at 18.5%.

Regarding `CC(=O)c1cccc(NC(=O)COc2c(C)n(C)ccc2=O)c1`, the cytotoxicity at 70.5 h is -7.44%.

For the compound `Cc1cncc(C(=O)N2C[C@@H]3CN(S(C)(=O)=O)CCO[C@@H]3C2)c1`, the cytotoxicity at 70.5 h is 19.6%.

As for `COc1cccc(C(=O)NC(c2ccccn2)[C@H]2CC[C@H](CN)CC2)c1` (some centres not stated), the cytotoxicity at 70.5 h was -8.19%.

`CC(NC(=O)NCCCO)c1ccc(-c2ccncc2)cc1` (configuration not stated): the cytotoxicity at 70.5 h is -9.46%.

As to `Oc1cccc(CN2C[C@H]3CC[C@@H]2CN(Cc2cccnc2)C3)c1`, the cytotoxicity at 70.5 h amounted to 3.01%.

Turning to `Cc1nc[nH]c1-c1nccn1CCN(C)S(C)(=O)=O`, the cytotoxicity at 70.5 h is 3.1%.

As to `Cc1cc(C)n(CC2CCCN2CCc2ccccn2)n1` (configuration not stated), the cytotoxicity at 70.5 h was found to be 1.45%.

`C=C(C)COc1ccccc1NC(=O)N1CCOCC(CO)C1` (configuration not stated): the cytotoxicity at 70.5 h came out at 23.5%.

Turning to `Cc1ccc(S(=O)(=O)N2CCOCC2C#N)cc1Br` (configuration not stated), the cytotoxicity at 70.5 h is -6.92%.

In the case of `CN1CCN(Cc2cccnc2)C2(CCN(Cc3ccccn3)C2)C1=O` (configuration not stated), the cytotoxicity at 70.5 h was -7.04%.

In the case of `Cc1ccccc1CN(Cc1ccc(S(C)(=O)=O)cc1)CC(C)C`, the cytotoxicity at 70.5 h was 6.09%.

Consider `CCOc1cc(NC(=O)N2CCOC3(CCC3)C2)ccc1C`, for which the cytotoxicity at 70.5 h was -5.84%.

With `OCC1CCCCN1c1ccc(-c2nc(-c3ccccc3F)no2)cn1` (configuration not stated), the cytotoxicity at 70.5 h is -24.7%.

`Fc1cccc(CNCC2Cn3nncc3CO2)c1` (configuration not stated): the cytotoxicity at 70.5 h was -7.02%.

As for `Cc1nc(C)n(CC2CCCN(c3ncnc4c3CCC4)C2)n1` (configuration not stated), the cytotoxicity at 70.5 h is 26.1%.

For `CC(Oc1ccc(F)c(F)c1)C(=O)N(CC(N)=O)C1CCCC1` (configuration not stated), the cytotoxicity at 70.5 h was 27.6%.

On to `O=C(c1cccc2[nH]ncc12)N1CCCC1c1noc(C2CC2)n1` (configuration not stated), for which the cytotoxicity at 70.5 h is -18.3%.

`N#Cc1cnc2ccccc2c1N1CCC(C(=O)O)CC1`: the cytotoxicity at 70.5 h is -4.5%.

For `O=C(CN1CCCC1CC(=O)c1ccccc1)NCc1ccccn1` (configuration not stated), the cytotoxicity at 70.5 h came out at 4.93%.

For the compound `O=C(NCCCF)Nc1ccc2nc(N3CCOCC3)oc2c1`, the cytotoxicity at 70.5 h is 12.5%.

Regarding `Cc1cc(C)n(C2CCCN(C(=O)CCNc3ncccn3)C2)n1` (configuration not stated), the cytotoxicity at 70.5 h is -2.87%.

As for `COc1ccccc1OCc1cc(C(=O)NC[C@@H]2CCCN2)n[nH]1`, the cytotoxicity at 70.5 h was -1.83%.

For `CC(C)Oc1ncnc2c1CCN(Cc1ccc(F)cc1)CC2`, the cytotoxicity at 70.5 h was -5.44%.

For the compound `Cn1cc(CN2C[C@@H]3COC[C@]3(C(=O)NCc3ccccn3)C2)cn1`, the cytotoxicity at 70.5 h was -17.5%.

`CN1CCN(C(=O)c2cc(-c3cnc(N4CCCC4)nc3)cn2C)CC1`: the cytotoxicity at 70.5 h was -21.9%.

As for `O=C1COC2(CCN(Cc3ccncc3)CC2)CN1`, the cytotoxicity at 70.5 h is -11.9%.

In the case of `CC(NC(=O)CCCc1nc(C(C)(C)C)no1)c1ccccn1` (configuration not stated), the cytotoxicity at 70.5 h worked out at 10.9%.

As to `CCC(C)(C)NC(=O)c1ccc(NC(=O)NCc2cc(C)on2)cc1`, the cytotoxicity at 70.5 h was -6.36%.

For `O=C(Nc1cnn(Cc2ccc(F)cc2Cl)c1)C1CC1`, the cytotoxicity at 70.5 h is -3.99%.

As for `CN(CC(=O)NC1(C)CCS(=O)(=O)C1)Cc1ccc(F)c(F)c1` (configuration not stated), the cytotoxicity at 70.5 h was 3.42%.

Take `COCCNS(=O)(=O)c1cccc2c1CN(C(=O)c1ccccc1)CC2`: the cytotoxicity at 70.5 h is 14.6%.

With `O=C(NCc1nnc2n1CCCCC2)N1CCc2sccc2C1`, the cytotoxicity at 70.5 h was -5.42%.

On to `Cc1nc(-c2ccccc2C)n(CC(=O)NC(C)C)n1`, for which the cytotoxicity at 70.5 h turned out to be 12.9%.

With `CCOc1ncccc1C(=O)N1CC=C(c2ccc(O)cc2)CC1`, the cytotoxicity at 70.5 h was -6.39%.

For `CC(c1cc(O)nc(NC2CCCC2)n1)n1ncc2ccccc2c1=O` (configuration not stated), the cytotoxicity at 70.5 h was -8.36%.

Turning to `Cc1occc1C(=O)N1C[C@@H](C(=O)NCc2ccco2)C[C@H]2OCC[C@H]21`, the cytotoxicity at 70.5 h is -10.4%.

Take `Cc1nnc(C2Cc3ccccc3CN2Cc2ncc(Cl)n2C)o1` (configuration not stated): the cytotoxicity at 70.5 h was -13.3%.

On to `Cc1ncsc1CN1CC2(CCCC2)CC1=O`, for which the cytotoxicity at 70.5 h is 0.928%.

For `CC(C)C(=O)N1CCC2(CCCN(CCOc3ccccc3)C2)C1` (configuration not stated), the cytotoxicity at 70.5 h was -8.26%.
